Source: patent US5750552A, “Imidazoline derivative, possible tautomer thereof, and vulnerary including such derivative or tautomer” (Arax Co., Ltd., priority 1995, dated 1998)

Experiments:
[1] = tested on: gastric acid secretion in a pylorus ligated rat; test: Inhibitory effect on the gastric acid secretion in a pylorus ligated rat; format: in vivo, SD rats; details: 4 hours
Description: Inhibitory effect on the gastric acid secretion in a pylorus ligated rat Male 7-week SD rats were fasted for 24 hours, with a fast of water beginning in early morning of the day when the experiments were performed. The rats were classified into groups each consisting of five rats, such that all the groups have substantially the same average weight. The experiments were performed according to a method of Shay et. al. (Shay, H. et. al., Gastroenterology, Vol. 5, pp43, 1945). Described more specifically, each of the rats was subjected to a light anesthesia by ether, and the hair of the abdomen of each rat was clipped. Then, the abdomen was incised over a length of 1.5 cm along the center line downwards from a portion 1 cm below the xiphoid of the rat, and the stomach was taken out of the body. A portion connecting the pylorus and the duodenum was ligated by suturing thread. […] After the administration, the skin of the abdominal muscle and abdomen was sutured. The rats were kept in cages and fasted for 4 hours with a fast of water. Then, the rats were sacrificed by ether, and the stomach of each rat was removed. The gastric content was obtained from a small hole formed through the stomach of each rat and was collected in a test tube. […] An amount of supernatant was measured as a volume of gastric acid, and a total acidity of the gastric acid was also measured. A volume of gastric acid inhibitory percent (%) and a total acidity inhibitory percent (%) were calculated in the same manner as the ulcer inhibitory percent was calculated. The total acidity was obtained as a product of the amount of gastric acid secreted for 4 hours and the acidity per 1 mL of the gastric acid which was subjected to neutralization titration by an aqueous solution of 0.01N sodium hydroxide.

[2] = tested on: bFGF mRNA; test: Effect on additional expression of bFGF mRNA in RGM1 cells (RT-PCR, band intensity); format: cell-based, rat; set-up: key: ++: the expression of the bFGF mRNA in the imidazoline-treated cells was considerably increased; +: the expression of the bFGF mRNA was increased to some extent; details: 48 hours, vs cells without the derivative
Source text: Effect of imidazoline derivatives on the additional expression of the bFGF
There will be next explained an effect of the imidazoline derivatives in vitro.
Initially, there will be explained an effect of the imidazoline derivative on the additional expression of bFGF in the cells cultured. The reverse transcription-polymerase chain reaction (PCR) was used to explain the effects of imidazoline derivatives on the additional expression of bFGF, and then the PCR products were subjected to electrophoresis to confirm a bFGF band.
An established rat gastric mucosal epithelial cell line RGM1 was seeded in petri dishes (1×10^6 cells/dish), in the presence of D-MEM/Ham 12 (1:1) mixed medium containing 20% fetal calf serum. After 24 hours, the imidazoline derivatives as the specimen drugs according to the present invention were applied in the culture medium, and the cells were cultured for 48 hours. The compounds prepared in Examples 1 and 14 were used as the specimen drugs. Cultures were then supplemented with the compounds in final concentrations (10 μM and 100 μM for the compound of Example 1, and 3 μM, 10 μM and 100 μM for the compound of Example 14).
From the cultured cells of each sample subjected to the above-described processing by the specimen drugs, total cellular RNA was extracted according to Acid Guanidinium Thiocyanate-Phenol-Chloroform method (AGPC). Described more specifically, after cultivation with the above compounds in the culture medium, the culture supernatant was completely removed by suction. To the cells of each sample left in the petri dish, 500 μL of Solution D (consisting of: 4M of guanidinethiocyanate; 25 mM of sodium citrate; 0.5% sarkosyl solution, 0.1M of 2-mercaptoethanol) was added, and the cells were scraped with rubber policeman (available from SUMITOMO BAKELITE CO., LTD.). The thus obtained cell suspension was transfered into a micro centrifuge tube, and there were successively added 50 μL of 2M sodium acetate (pH 4.0), 500 μL of water-saturated phenol and 100 μL of chloroform-isoamyl alcohol (49:1). The suspension was mixed each time the above-described substances were added. The suspension was placed on ice for 15 minutes after it was intensely shaken for 1 minute. Then, the suspension was centrifuged at 10000 rpm for 20 minutes at 4° C. The aqueous layer (upper layer) was transfered into another micro centrifuge tube, and was intimately mixed with an equivalent amount of isopropanol. After the mixture was kept at -20° C. for one hour, it was centrifuged at 10000 rpm for 20 minutes at 4° C. After the centrifugation, the upper layer was discarded, and a precipitate of mRNA was completely dissolved in 200 μL of Solution D. The thus obtained solution was mixed again with an equivalent amount of isopropanol and the mixture was kept at -20° C. for one hour. The mixture was then subjected to centrifugation for 20 minutes at 4° C. and 10000 rpm. After the centrifugation, the supernatant was discarded, and the precipitate was centrifuged at 10000 rpm for 10 minutes at 4° C. The supernatant was discarded, while the precipitate was dried in vacuo for 5 minutes. The total RNA was dissolved in 50 μL of distilled water processed by diethyl pyrocarbonate (DEPC). The concentration of total RNA was measured on the basis of its absorbance at 260 nm by ultraviolet spectrum.
The CDNA synthesis was performed by means of Reverse Transcriptase using the above obtained total RNA as a template. As a primer, a random primer was employed. […]

[3] = tested on: bFGF; test: Production amount of bFGF in RGM1 culture supernatant (ELISA); format: cell-based, Wistar rat; details: not stated which
Description: Effect of imidazoline derivatives on the additional expression of bFGF
Initially, RGM1 cells which are derived from a gastric mucosa epithelial cell of a Wistar rat were seeded into 24 well plates (2×10^4 cells/dish, 1 mL/well), and cultured for 24 hours. As the imidazoline derivative according to the present invention, the compound obtained in Example 14 was used. The compound was applied to the cells in final concentrations of 3 μM, 10 μM and 30 μM. After 24 hours, the culture supernatants which correspond to the respective concentration values were collected, and analyzed using bFGF ELISA kit. Similarly, the culture supernatants were collected 48 hours after the application of the compound. Described more specifically, 50 μL of each culture supernatant was applied to a 96 well microplate coated with bFGF monoclonal antibody. The plate was incubated for a predetermined time so that the bFGF contained in each culture supernatant was bonded to the bFGF monoclonal antibody. Thereafter, each supernatant was reacted with horseradish peroxidase conjugated antibody which is able to recognize another epitope of the bFGF, so as to form, on the 96 well microplate, a sandwich type composite body consisting of immobilized antibody (bFGF monoclonal antibody), antigen (bFGF), and HRP linked antibody. Subsequently, HRP linked antibody of the composite body was colored using o-phenylenediamine and H2 O2. The reaction was terminated by using sulfuric acid after a predetermined time has elapsed. Then, the absorbance of reactant at 490 nm was measured using a micro-platereader. The production amount of the bFGF was obtained for each culture supernatant, on the basis of the measured absorbance values, according to a standard curve prepared for a standard bFGF of a human body.

[4] = tested on: wound in rat; test: Healing effect on wound in rat; format: in vivo, SD rats; details: for Healing days / Healing Index: 15 days; for effect on healing days and Healing Index (in words): TABLES 7 and 8
Description: Healing Effect on wound in rat
Male 7-week SD rats were classified into groups each consisting of 6-7 rats, such that all the groups have substantially the same average weight. The experiment was performed on the rats according to a method of Tsurumi et al. (Oyo Yakuri, Vol. 7, pp833, 1973). Initially, the rats were subjected to an anesthesia with pentobarbital. The hair of the back of each rat was clipped, and the skin was disinfected with 70% ethanol. Then, the skin was lightly pulled and punched off in a direction from the right to the left by means of a punch whose diameter is 10 mm, so as to form two open wounds on portions of the back of the rat which are symmetrical to each other with respect to the center line of the back. The compounds of Examples indicated in the following TABLES 7 and 8 were used as specimen drugs, and orally administered once a day to each of the rats with doses indicated in the TABLES 7 and 8. The oral administration continued for 15 consecutive days, beginning from the first day when the wounds were formed on the back of each rat.
To clarify the healing effect on the wounds, an Healing Index and healing days were obtained in the following manner. Initially, the lengths of a major axis and a minor axis of each wound formed on the back were measured using calipers. On the basis of the measured length values, the area of each wound was calculated as the area of an ellipse. The Healing Index was obtained according to a method of Nakano et al. (Oyo Yakuri, Vol. 47, pp29, 1994). Described more specifically, a ratio of area of each wound was chronologically represented in a graph, and an area of the lower part of a curve in the graph during a period from the fifth day to the fifteenth day after the wounds were formed was obtained as the Healing Index. […] The healing days were obtained as the number of the days that were required for the wounds to be completely covered with regenerated epidermises. As for the wound that was healed in more than 15 days, the healing days were obtained as 16 days.

[5] = tested on: water-immersion restraint stress-induced gastric ulcer; test: Inhibitory effect on water-immersion restraint stress-induced gastric ulcer; format: in vivo, SD rats; details: 10 mg/kg oral, 30 min before stress
Description: Inhibitory effect on water-immersion restraint stress-induced gastric ulcer
Male 7-week SD rats were fasted for 24 hours, with a fast of water beginning in early morning of the day when the experiments were performed. The rats were classified into groups each consisting of five rats, such that all the groups have substantially the same average weight. Thirty minutes before giving a stress to the rats, the compounds of the Examples indicated in TABLE 3 were orally administered as specimen drugs to the rats, with a dose of 10 mg/kg. The rats were then kept in stress cages, and were given a stress by immersing the cages in a water bath kept at a substantially constant temperature of 23°±1° C., such that the water level was at the height of the xiphoid of the rats. Seven hours later, the specimen rats were sacrificed by ether, and the gastric mucosa of each rat was semi-fixed with 2% formaline. The longitudinal length of the damaged area of the gastric mucosa was measured. A sum of the measured length values of the rats of each group was calculated as an ulcer index. An anti-ulcer or ulcer inhibitory percent (%) was calculated as {1-(ulcer index of each group of specimen rats)/(ulcer index of non-specimen group)}×100.

In the case of `CN/C(=N/CCSCc1nc[nH]c1C)NC#N` [cimetidine], the “Total acidity Inhibitory percent” value ([1]; 10 mg/kg intraduodenal) was 27.7%, the “Volume of Gastric acid Inhibitory percent” value ([1]; 10 mg/kg intraduodenal) was 22.7% and the “Total acidity Inhibitory percent” value ([1]; 30 mg/kg intraduodenal) was 51.8%. For the same molecule, the “Volume of Gastric acid Inhibitory percent” value ([1]; 30 mg/kg intraduodenal) was 31.2%, the “Total acidity Inhibitory percent” value ([1]; 100 mg/kg intraduodenal) was 76.1% and the “Volume of Gastric acid Inhibitory percent” value ([1]; 100 mg/kg intraduodenal) was 52.8%.

In the case of `CC(C)CN(C)c1ccccc1C[S+]([O-])C1=NC(C)(C)C(=S)N1` (centres unmarked) [Example 14, 2-(2-N-isobutyl-N-methylaminobenzylsulfinyl)-5,5-dimethylimidazolin-4-thione], the “Band Intensity” value ([2]; 3 μM) was “++”, the “Band Intensity” value ([2]; 10 μM) was “++” and the “Band Intensity” value ([2]; 100 μM) was “++”. The “Production amount of bFGF” value ([3]; concentration of drug 3, 24 or 48 hours) was 15 pg/mL, the “Production amount of bFGF” value ([3]; concentration of drug 10, 24 or 48 hours) was 29 pg/mL and the “Production amount of bFGF” value ([3]; concentration of drug 30, 24 or 48 hours) was 36 pg/mL. For the same molecule, the Healing days ([4]; TABLE 8, 50 mg/kg oral once a day, control 14.3 ± 0.37) was 13.5 ± 0.42 days, the “Healing Index” value ([4]; TABLE 8, 50 mg/kg oral once a day, control 152.0 ± 9.5) was 116.5 ± 7.0 and the Healing days ([4]; TABLE 8, 100 mg/kg oral once a day, control 14.3 ± 0.37) was 13.6 ± 0.44 days. The “Healing Index” value ([4]; TABLE 8, 100 mg/kg oral once a day, control 152.0 ± 9.5) was 126.5 ± 8.3 and the “effect on healing days and Healing Index (in words)” value [4] was “effective to reduce the healing days and lower the Healing Index”.

In the case of `CC1(C)N=C([S+]([O-])Cc2ccccc2NCC(F)(F)F)NC1=S` (centres unmarked) [Example 12, 2-[2-N-(2,2,2-trifluoroethyl)aminobenzylsulfinyl]-5,5-dimethylimidazolin-4-thione], the “Inhibitory Percent (ulcer)” value [5] was 46.6%.

For `CC1(C)N=C([S+]([O-])Cc2ccccc2NC(=O)C(F)(F)F)NC1=S` (centres unmarked) [Example 1, 2-(2-N-trifluoroacetylaminobenzylsulfinyl)-5,5-dimethylimidazolin-4-thione], the “Band Intensity” value ([2]; 10 μM) was “+”, the “Band Intensity” value ([2]; 100 μM) was “+” and the Healing days ([4]; TABLE 7, 50 mg/kg oral once a day, control 15.1 ± 0.22) was 14.4 ± 0.38 days. The “Healing Index” value ([4]; TABLE 7, 50 mg/kg oral once a day, control 188.3 ± 18.2) was 183.2 ± 11.2, the Healing days ([4]; TABLE 7, 100 mg/kg oral once a day, control 15.1 ± 0.22) was 14.2 ± 0.37 days and the “Healing Index” value ([4]; TABLE 7, 100 mg/kg oral once a day, control 188.3 ± 18.2) was 157.5 ± 18.9. The “effect on healing days and Healing Index (in words)” value [4] was “effective to reduce the healing days and lower the Healing Index”.

In the case of `CCC1(CC)N=C([S+]([O-])Cc2ccccc2N(C)C)NC1=S` (centres unmarked) [Example 7, 2-(2-dimethylaminobenzylsulfinyl)-5,5-diethylimidazolin-4-thione], the “Inhibitory Percent (ulcer)” value [5] was 53.9%.
